For orientation: IC50 means the concentration needed to halve the response being measured.

Seven compounds from patent US4895863A, “Novel imidazo[2,1-B]benzothiazoles” (Roussel Uclaf, priority 1987, dated 1990) can be followed below.

The assay concerns the target benzodiazepine receptors. The experiment in a line: Affinity for benzodiazepine receptors: inhibition of specific binding of 3H-labelled flunitrazepam in rat rear brain membranes. On the set-up: species or system rats. Particulars: inhibition of 50% of specific binding of 0.6×10^-9 mol 3H-flunitrazepam; membranes from rear portion of rat brain. The method, then:
The affinity of the active ingredients for benzodiazepine receptors was measured using a radioactively labelled (^3 H) compound flunitrazepam in a modified version of the method of Squires et al [Nature, (1977), Vol. 266, p. 732]. The values given in Table 2 below are the concentration (mol×10^-9) of the compound under test which inhibited 50% of the specific binding of 0.6×10^-9 mol of ^3 H-labelled flunitrazepam in preparations of membrances from the rear portion of the brain in rats (IC50 values).

With `Cc1cc2sc3nc(C(=O)C4CC4)cn3c2cc1C` [Example 8], the IC50 was found to be 60 nM. Then `CC(C)Oc1ccc2c(c1)sc1nc(C(=O)C3CC3)cn12` [Example 7, (7-isopropoxy-imidazo[2,1-b]benzothiazol-2-yl) cyclopropyl-methanone], with 6.3 nM; and `COc1ccc2c(c1)sc1nc(C(=O)C3CC3)cn12` [Example 1, (7-Methoxy-imidazo[2,1-b]benzothiazol-2-yl)-cyclopropylmethanone], with 2.5 nM; and `O=C(c1cn2c(n1)sc1cc3c(cc12)OCO3)C1CC1` [Example 5], with 158 nM.

Turning to `O=C(c1cn2c3c(sc2n1)CCCC3)C1CC1` [Example 6, (5,6,7,8-tetrahydro-imidazo[2,1-b]benzothiazol-2-yl) cyclopropyl-methanone], the IC50 is 79 nM. `O=C(c1cn2c(n1)sc1ccccc12)C1CC1` [Example 2] returned an IC50 of 20 nM. Take `O=C(c1cn2c(n1)sc1cc(OCc3ccccc3)ccc12)C1CC1` [Example 4, (7-benzyloxy-imidazo[2,1-b]-benzothiazol-2-yl) cyclopropyl-methanone]: the IC50 came out at 3.2 nM.
